In this assay the target is T1, abc isoform of human TMEM16A channel expressed in CHO cells (Homo sapiens, UniProt Q5XXA6, DEL476-501).
T1 construct: expressed in transfected cells; host or cells: CHO cells, doxycycline-inducible expression under Blasticidin/Zeocin selection
T1 sequence (Q5XXA6 with tags, fused parts or gaps isoform Q5XXA6-5 DEL539-564): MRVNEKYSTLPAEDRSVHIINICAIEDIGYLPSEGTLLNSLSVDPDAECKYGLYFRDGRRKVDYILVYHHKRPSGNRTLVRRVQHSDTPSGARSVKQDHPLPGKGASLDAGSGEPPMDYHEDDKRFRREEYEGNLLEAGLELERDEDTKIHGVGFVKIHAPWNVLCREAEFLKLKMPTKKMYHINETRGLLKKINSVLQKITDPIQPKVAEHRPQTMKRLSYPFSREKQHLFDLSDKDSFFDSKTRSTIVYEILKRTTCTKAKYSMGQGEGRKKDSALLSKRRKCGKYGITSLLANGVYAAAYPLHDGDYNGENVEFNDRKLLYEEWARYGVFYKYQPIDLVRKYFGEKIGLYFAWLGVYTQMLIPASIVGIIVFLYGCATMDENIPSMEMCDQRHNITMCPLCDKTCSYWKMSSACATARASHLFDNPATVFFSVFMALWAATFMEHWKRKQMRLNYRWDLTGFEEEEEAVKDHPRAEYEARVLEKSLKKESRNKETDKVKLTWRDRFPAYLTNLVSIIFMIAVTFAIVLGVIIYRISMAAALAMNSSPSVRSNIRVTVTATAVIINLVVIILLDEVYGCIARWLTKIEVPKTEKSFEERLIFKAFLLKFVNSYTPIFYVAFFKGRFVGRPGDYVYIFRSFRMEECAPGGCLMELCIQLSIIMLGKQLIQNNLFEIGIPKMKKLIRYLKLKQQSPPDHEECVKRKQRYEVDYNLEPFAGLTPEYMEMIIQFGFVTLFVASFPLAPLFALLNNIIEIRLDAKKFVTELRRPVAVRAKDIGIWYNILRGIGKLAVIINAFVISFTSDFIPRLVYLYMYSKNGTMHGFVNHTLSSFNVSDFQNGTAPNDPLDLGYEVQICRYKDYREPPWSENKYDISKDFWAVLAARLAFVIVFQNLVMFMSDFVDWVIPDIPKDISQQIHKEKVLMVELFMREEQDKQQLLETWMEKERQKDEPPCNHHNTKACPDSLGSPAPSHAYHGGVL
The assay can be described thus: Automated patch clamping (QPatch) assay to measure TMEM16A activity in whole-cell. The assay is classed as cell-based. The note with it: for EC50: CHO cells expressing human TMEM16A (abc), whole-cell automated patch clamp, Hill fit, read-out: TMEM16A QPATCH assay EC50 V3 EC50; for Emax: CHO, maximum current at highest dose relative to reference potentiator at maximal concentration (upper limit) and vehicle (lower limit), read-out: TMEM16A QPATCH assay EC50 V3 Assay Window (% TMEM16A max activation). The essentials:
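Whole-cell currents were recorded by planar automated patch clamp from induced CHO cells (doxycycline 1 μg/mL, 18-24 h), using a −70 mV hold, +70 mV step and −90 to +70 mV ramp. Values: Hill-fitted EC50, and activation scaled between vehicle current and reference-potentiator maximum; 0.3% DMSO final.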

Molecules are shown by their SMILES.

By EC50 is commonly meant the concentration that produces a half-maximal response.

For `CCCC(CCC)NC(=O)c1cc(-c2cccc(-c3ncc(C(=O)NC(CC)CC)o3)c2)[nH]n1` [Example 3.2, 2-(3-(3-(Heptan-4-Ylcarbamoyl)-1 H-Pyrazol-5-Yl)Phenyl)-N-(Pentan-3-yl)Oxazole-5-Carboxamide], the EC50 came to 30 nM and the Emax was found to be 90%.
The like results for `CCC(CC)NC(=O)c1cnc(-c2cccc(-c3cc(C(=O)N[C@H](C(=O)OCc4ccccc4)C(C)C)n[nH]3)c2)o1` [Example 3.3, (S)-Benzyl 3-Methyl-2-(5-(3-(5-(Pentan-3-Ylcarbamoyl)Oxazol-2-Yl)Phenyl)-1 H-Pyrazole-3-Carboxamido)Butanoate] were, in that order, 180 nM and 133%.
The like results for `CCC(CC)NC(=O)c1cnc(-c2cccc(-c3cc(C(=O)NCC4CCC4)n[nH]3)c2)o1` [Example 3.5, 2-(3-(3-((Cyclobutylmethyl)Carbamoyl)-1H-Pyrazol-5-Yl)Phenyl)-N-(Pentan-3-Yl)Oxazole-5-Carboxamide] were, in that order, 40 nM and 124%.
The corresponding values for `CCC(CC)NC(=O)c1cnc(-c2cccc(-c3cc(C(=O)NC4(C5CC5)CC4)n[nH]3)c2)o1` [Example 3.6, 2-(3-(3-([1,1′-Bi(Cyclopropan)]-1-Ylcarbamoyl)-1H-Pyrazol-5-Yl)Phenyl)-N-(Pentan-3-Yl)Oxazole-5-Carboxamide] are 170 nM and 122%.
Turning to `CCC(CC)NC(=O)c1cnc(-c2cccc(-c3cc(C(=O)NC(C)(C)C4CC4)n[nH]3)c2)o1` [Example 3.7, 2-(3-(3-((2-Cyclopropylpropan-2-Yl)Carbamoyl)-1H-Pyrazol-5-Yl)Phenyl)-N-(Pentan-3-Yl)Oxazole-5-Carboxamide], the EC50 stood at 20 nM and the Emax was determined as 118%.
Turning to `CCC(CC)NC(=O)c1cnc(-c2cccc(-c3cc(C(=O)NC(C)(C4CC4)C(F)(F)F)n[nH]3)c2)o1` (centres unmarked) [Example 3.8, 2-(3-(3-((2-Cyclopropyl-1,1,1-Trifluoropropan-2-Yl)Carbamoyl)-1H-Pyrazol-5-Yl)Phenyl)-N-(Pentan-3-Yl)Oxazole-5-Carboxamide], the EC50 stood at 50 nM and the Emax worked out at 99%.
The corresponding values for `CCC(CC)NC(=O)c1cnc(-c2cccc(-c3cc(C(=O)NCCOC(C)C)n[nH]3)c2)o1` [Example 3.9, 2-(3-(3-((2-Isopropoxyethyl)Carbamoyl)-1H-Pyrazol-5-Yl)Phenyl)-N-(Pentan-3-Yl)Oxazole-5-Carboxamide] are 500 nM and 96%.
The like results for `CCC(CC)NC(=O)c1cnc(-c2cccc(-c3cc(C(=O)NC(C)C4CCC4)n[nH]3)c2)o1` (centres unmarked) [Example 3.10, 2-(3-(3-((1-Cyclobutylethyl)Carbamoyl)-1H-Pyrazol-5-Yl)Phenyl)-N-(Pentan-3-Yl)Oxazole-5-Carboxamide] were, in that order, 90 nM and 95%.
The corresponding values for `CCC(CC)NC(=O)c1cnc(-c2cccc(-c3cc(C(=O)N[C@@H](C)COC)n[nH]3)c2)o1` [Example 3.11, (S)-2-(3-(3-((1-Methoxypropan-2-Yl)Carbamoyl)-1H-Pyrazol-5-Yl)Phenyl)-N-(Pentan-3-Yl)Oxazole-5-Carboxamide] are 590 nM and 91%.
As for `CCC(CC)NC(=O)c1cnc(-c2cccc(-c3cc(C(=O)NCC(C)(C)OC)n[nH]3)c2)o1` [Example 3.12, 2-(3-(3-((2-Methoxy-2-Methylpropyl)Carbamoyl)-1H-Pyrazol-5-Yl)Phenyl)-N-(Pentan-3-Yl)Oxazole-5-Carboxamide], the concentration for a half-maximal effect (EC50) amounted to 270 nM and the Emax was found to be 76%.
The like results for `CCC(CC)NC(=O)c1cnc(-c2cccc(-c3cc(C(=O)NCC4(C)CC4)n[nH]3)c2)o1` [Example 3.13, 2-(3-(3-(((1-Methylcyclopropyl)Methyl)Carbamoyl)-1H-Pyrazol-5-Yl)Phenyl)-N-(Pentan-3-Yl)Oxazole-5-Carboxamide] were, in that order, 70 nM and 70%.
The corresponding values for `CCC(CC)NC(=O)c1cnc(-c2cccc(-c3cc(C(=O)Nc4cccc(OC(F)(F)F)c4)n[nH]3)c2)o1` [Example 3.14, N-(Pentan-3-Yl)-2-(3-(3-((3-(Trifluoromethoxy)Phenyl)Carbamoyl)-1 H-Pyrazol-5-Yl)Phenyl)Oxazole-5-Carboxamide] are 490 nM and 43%.
In the case of `CCC(CC)NC(=O)c1cnc(-c2cccc(-c3cc(C(=O)N4CCCC(C)(C)C4)n[nH]3)c2)o1` [Example 3.15, 2-(3-(3-(3,3-Dimethylpiperidine-1-Carbonyl)-1H-Pyrazol-5-Yl)Phenyl)-N-(Pentan-3-Yl)Oxazole-5-Carboxamide], the EC50 was 200 nM and the Emax was found to be 72%.
The like results for `CCC(CC)NC(=O)c1cnc(-c2cccc(-c3cc(C(=O)NCc4ccccc4)n[nH]3)c2)o1` [Example 3.16, 2-(3-(3-(Benzylcarbamoyl)-1H-Pyrazol-5-Yl)Phenyl)-N-(Pentan-3-Yl)Oxazole-5-Carboxamide] were, in that order, 140 nM and 67%.
The corresponding values for `CCOC(=O)[C@H](CC1CCCCC1)NC(=O)c1cc(-c2cccc(-c3ncc(C(=O)NC(CC)CC)o3)c2)[nH]n1` [Example 3.17, (S)-Ethyl 3-Cyclohexyl-2-(5-(3-(5-(Pentan-3-Ylcarbamoyl)Oxazol-2-Yl)Phenyl)-1 H-Pyrazole-3-Carboxamido)Propanoate] are 170 nM and 66%.
The corresponding values for `CCC(CC)NC(=O)c1cnc(-c2cccc(-c3cc(C(=O)NCC4CCCCC4)n[nH]3)c2)o1` [Example 3.18, 2-(3-(3-((Cyclohexylmethyl)Carbamoyl)-1H-Pyrazol-5-Yl)Phenyl)-N-(Pentan-3-Yl)Oxazole-5-Carboxamide] are 30 nM and 66%.
As to `CCC(CC)NC(=O)c1cnc(-c2cccc(-c3cc(C(=O)NCc4ccc(C5(C(F)(F)F)N=N5)cc4)n[nH]3)c2)o1` [Example 3.19, N-(Pentan-3-Yl)-2-(3-(3-((4-(3-(Trifluoromethyl)-3H-Diazirin-3-Yl)Benzyl)Carbamoyl)-1 H-Pyrazol-5-Yl)Phenyl)Oxazole-5-Carboxamide], the 50% effective concentration (EC50) amounted to 270 nM and the Emax worked out at 69%.
The corresponding values for `CCOC(=O)C1(C)CCN(C(=O)c2cc(-c3cccc(-c4ncc(C(=O)NC(CC)CC)o4)c3)[nH]n2)C1` (centres unmarked) [Example 3.20, Ethyl 3-Methyl-1-(5-(3-(5-(Pentan-3-Ylcarbamoyl)Oxazol-2-Yl)Phenyl)-1H-Pyrazole-3-Carbonyl)Pyrrolidine-3-Carboxylate] are 450 nM and 82%.
The corresponding values for `CCC(CC)NC(=O)c1cnc(-c2cccc(-c3cc(C(=O)Nc4cccc(OC(C)C)c4)n[nH]3)c2)o1` [Example 3.21, 2-(3-(3-((3-Isopropoxyphenyl)Carbamoyl)-1H-Pyrazol-5-Yl)Phenyl)-N-(Pentan-3-Yl)Oxazole-5-Carboxamide] are 190 nM and 74%.
The corresponding values for `CCC(CC)NC(=O)c1cnc(-c2cccc(-c3cc(C(=O)NCc4ccc5c(c4)OCO5)n[nH]3)c2)o1` [Example 3.22, 2-(3-(3-((Benzo[d][1,3]Dioxol-5-Ylmethyl)Carbamoyl)-1H-Pyrazol-5-Yl)Phenyl)-N-(Pentan-3-Yl)Oxazole-5-Carboxamide] are 140 nM and 60%.
For `CCC(CC)NC(=O)c1cnc(-c2cccc(-c3cc(C(=O)NCCSC(C)(C)C)n[nH]3)c2)o1` [Example 3.23, 2-(3-(3-((2-(Tert-Butylthio)Ethyl)Carbamoyl)-1H-Pyrazol-5-Yl)Phenyl)-N-(Pentan-3-Yl)Oxazole-5-Carboxamide], the half-maximal effective concentration (EC50) worked out at 130 nM and the Emax was 79%.
The corresponding values for `CCC(CC)NC(=O)c1cnc(-c2cccc(-c3cc(C(=O)N[C@@H](C)CC)n[nH]3)c2)o1` [Example 3.24, (S)-2-(3-(3-(Sec-Butylcarbamoyl)-1H-Pyrazol-5-Yl)Phenyl)-N-(Pentan-3-Yl)Oxazole-5-Carboxamide] are 40 nM and 76%.

The values above are taken from US20220306617A1, “SUBSTITUTED 1,3-PHENYL HETEROARYL DERIVATIVES AND THEIR USE IN THE TREATMENT OF DISEASE” (NOVARTIS AG, priority 2019, published 2022).
